In assay [1] the target is T1, PfdUTPase (Plasmodium falciparum, UniProt Q8II92).
T1 construct: made in house
T1 sequence (Q8II92 1-173): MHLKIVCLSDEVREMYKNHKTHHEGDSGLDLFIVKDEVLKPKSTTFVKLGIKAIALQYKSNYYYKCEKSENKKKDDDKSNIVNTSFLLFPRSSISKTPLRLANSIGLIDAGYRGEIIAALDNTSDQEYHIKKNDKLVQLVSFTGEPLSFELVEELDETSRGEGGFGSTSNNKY
Put plainly: Inhibition of Plasmodium dUTPase (Ki). The format is biochemical. Particulars: for Ki: average of three independent experiments ± standard errors.

Assay [2] has as its target T2, HsdUTPase (Homo sapiens, UniProt P33316).
T2 construct: made in house
T2 sequence (P33316 1-164 isoform P33316-2): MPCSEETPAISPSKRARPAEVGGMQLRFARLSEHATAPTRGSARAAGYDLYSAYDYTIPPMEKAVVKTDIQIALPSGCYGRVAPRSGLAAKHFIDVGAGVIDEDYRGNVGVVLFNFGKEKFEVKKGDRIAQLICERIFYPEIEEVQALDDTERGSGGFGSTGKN
Put plainly: Inhibition of human dUTPase (Ki). The format is biochemical. The following applies: average of three independent experiments ± standard errors. From the text: Table 1 Ki values for Plasmodium and human dUTPases and IC50s for intraerythrocytic stages of Plasmodium falciparum | column: Ki HsdUTPase

In assay [3] the test system is Plasmodium falciparum 3D7. Put plainly: In vitro inhibitory activity against erythrocytic stages of P. falciparum (3H-hypoxanthine incorporation assay). The assay is classed as cell-based. The following applies: intraerythrocytic stages of Plasmodium falciparum; average of three independent experiments ± standard errors; read-out: IC50 Pf3D7. On the procedure:
(§1) In vitro inhibitory activity against the erythrocytic stages of P. falciparum of overexpressing mutants was determined by using the SYBR green assay and the ^3H-hypoxanthine incorporation assay was used for IC50 determination as previously described. Plasmodium falciparum 3D7 was cultured using standard methods, and synchronized using 5% sorbitol as previously described. Compounds were dissolved in DMSO and added at different concentrations (8–500 ng/ml) to 48 h post-synchronization parasites. […] Chloroquine dissolved in water was used as standard drug. Experiments were carried out at least twice independently and the different concentrations were tested in duplicate. IC50 values were calculated using a four-parameter logistic regression model using data obtained from two or three independent experiments as indicated.

Assay [4] has as its system Plasmodium falciparum lines overexpressing PfdUTPase (PfdUTPase OE). Put plainly: IC50 shift in P. falciparum line overexpressing PfdUTPase (SYBR green assay). Particulars: PfdUTPase overexpressing line vs parental line 3D7. The format is cell-based. On the procedure: as §1
(§2) Subsequently, the IC50 for each cell line with each compound and the fold change relative to the 3D7 IC50 was calculated (Fig. 3a). […] The IC50 for chloroquine as a reference compound was also determined in overexpressing mutants.

Assay [5] relates to Plasmodium falciparum lines overexpressing human dUTPase (HsdUTPase OE). Put plainly: IC50 shift in P. falciparum line overexpressing human dUTPase (SYBR green assay). The assay is classed as cell-based. Particulars: HsdUTPase overexpressing line vs parental line 3D7. The protocol:
as §1, §2

The subject of assay [6] is dTTP and dUTP pools in Plasmodium cultures. Put plainly: Intracellular dTTP and dUTP levels by modified DNA polymerase assay. The assay is classed as cell-based, Plasmodium falciparum. Particulars: schizont stage, 20 h of treatment, 1× and 3× the IC50; effect at high concentrations. On the procedure:
The effect of different dUTPase inhibitors on dUTP and dTTP levels from P. falciparum cells was measured using a modified DNA polymerase assay. The template sequence employed was the oligonucleotide 5′-[…]-3′ and as primer sequence the oligonucleotide 5′-CCGCCTCCACCGCC-3′ was used. Saponin-isolated parasite pellets (5 × 10^8 parasites per sample) were repeatedly washed in PBS and frozen at − 80 °C. Frozen pellets were extracted with 200 μl of cold methanol/water (1:1, v/v) vigorously by vortexing, freeze-thawed twice and centrifuged. Supernatants were collected and pellets were re-extracted with the same volume of methanol/water as previously mentioned and newly centrifuged. The combined supernatants were dried under vacuum. The residues were dissolved in 40 μl either of dUTPase buffer (34 mM Tris–HCl pH 7.8, 5 mM MgCl2) or dUTPase buffer plus 30 ng of HsdUTPase and incubated for 20 min at 37 °C. To stop the reaction, 60 μl of 100% methanol were added and the samples were incubated for 1 h at − 20 °C, followed by centrifugation for 20 min at 16,000×g. The supernatants were again dried under vacuum and the DNA polymerase assay used was modified from that of Horowitz et al.. The DNA polymerase I buffer contained 34 mM Tris–HCl pH 7.8, and 50 mM MgCl2. After incubation with DNA polymerase I, 30 μl of each sample were incubated for 30 min at 4 °C with 470 μl of DNA polymerase I buffer containing 10% (v/v) trichloroacetic acid to precipitate the DNA. The solution was blotted onto a glass microfibre filter GF/C (Whatman) and each filter was washed under vacuum with 30 ml of a solution of 5% (v/v) trichloroacetic acid and 3 ml of ethanol, dried and the radioactivity was counted using a LS 6500 Multi-Purpose Scintillation Counter (Beckman Coulter).
The levels of intracellular dTTP and dUTP were measured using the DNA polymerase based assay in Plasmodium cultures incubated with compounds 3 and 4. Parasites for dUTP and dTTP measurements were obtained from highly synchronized cultures in schizont stage after 20 h of treatment with concentrations of compound that corresponded with 1× and 3× the IC50 concentration.

As for “3- N-(4-(carboethoxy)butylurea)-5-tritylamino-2,3-dideoxy-β-D-xylofuranosyluracil [Compound 1]”, the results for the Ki in assay [1] and in assay [2] were 4730 ± 160 nM and over 100000 nM, respectively. Further, the concentration for half-maximal inhibition (IC50) in assay [3] turned out to be 40 ± 10 nM.

On to `CCOC(=O)CCCNC(=O)NCC(CCn1ccc(=O)[nH]c1=O)CNC(c1ccccc1)(c1ccccc1)c1ccccc1` (centres unmarked) [Compound 2, Ethyl 4-(3-(4-(2,4-dioxo-3,4-dihydropyrimin-1(2H)-yl)-2-((tritylamino)methyl)butyl)uredio)butanoate], for which the results for the Ki in assay [1] and in assay [2] were 560 ± 80 nM and 12200 ± 6910 nM, respectively. In assay [3], the IC50 amounted to 60 ± 10 nM.

As for `O=C(Nc1ccc(C(=O)O)cc1)O[C@H]1C[C@H](n2ccc(=O)[nH]c2=O)O[C@@H]1CNC(c1ccccc1)(c1ccccc1)c1ccccc1` [Compound 3, 3’-O-(4-(carboxy)phenylurethane)-5’-N-tritylamino-2’,5’-dideoxyuridine], the values for the inhibition constant (Ki) in assay [1] and in assay [2] were 79 ± 22 nM and over 100000 nM, respectively. In addition, the IC50 in assay [3] stood at 120 ± 50 nM. For the same molecule, the “Fold change in IC50 relative to the 3D7 IC50” value in assay [4] was found to be 3.8 fold; in assay [5], 2.3 fold. The dTTP pool result in assay [6] is “significant decrease”. The dUTP pool entry in assay [6] was “increase”.

`CCOC(=O)c1ccc(NC(=O)NCC(CCn2ccc(=O)[nH]c2=O)CNC(c2ccccc2)(c2ccccc2)c2ccccc2)cc1` (centres unmarked) [Compound 4, Ethyl 4-(3-(4-(2,4-dioxo-3,4-dihydropyrimin-1(2H)-yl)-2-((tritylamino)methyl)butyl)uredio)benzoate]: the “Activity against the enzyme relative to compound 3” value in assay [1] (PfdUTPase, compared with compound 3) was “eightfold less active”. The inhibition constant Ki in assay [1] is 610 ± 70 nM; in assay [2] it was over 100000 nM. Besides, in assay [3], the 50% inhibitory concentration (IC50) worked out at 150 ± 30 nM. In addition, the “Fold change in IC50 relative to the 3D7 IC50” value in assay [4] was determined as 4 fold; in assay [5], 2.5 fold. Besides, the dTTP pool entry in assay [6] is listed as “significant decrease”. Besides, in assay [6], the dUTP pool result was “increase”.

As to `CCN(CC)CCCC(C)Nc1ccnc2cc(Cl)ccc12` (centres unmarked) [chloroquine, Chloroquine, reference compound], the “Fold change in IC50 relative to the 3D7 IC50” value in assay [4] and in assay [5] was “No significant effects” in each case.

Broadly, the Ki is the dissociation constant of the complex between target and ligand, obtained from inhibition or displacement. Higher therefore signals weaker binding. A word on the IC50: it is the concentration at which inhibition is half-maximal.
